This is an account of results in PMC6274483, “Novel Selective and Potent EGFR Inhibitor that Overcomes T790M-Mediated Resistance in Non-Small Cell Lung Cancer” (Molecules, 2016).

Data set [1] concerns A431 cells. As to the kind of experiment: Cell apoptosis, Annexin V-FITC/PI flow cytometry, A431. The format is cell-based, human. The conditions noted are these: 48 h.
The target in the next data set is T1, wild-type EGFR (Homo sapiens, UniProt P00533).
T1 construct: purchased Promega Corporation V3831
As to the kind of experiment: EGFR kinase enzymatic assay (ADP-Glo), wild-type. Format: biochemical. The conditions noted are these: read-out: EGFR (IC50, nM) WT. As to the method:
(§1) The experiments were performed according to the instructions of the manufacturer. […] The test was performed in a 384-well plate, and includes the major steps below: (1) perform a 5 μL kinase reaction using 1× kinase buffer (e.g., 1× reaction buffer A); (2) incubate at room temperature for 60 min; (3) add 5 μL of ADP-Glo™ Reagent to stop the kinase reaction and deplete the unconsumed ATP, leaving only ADP and a very low background of ATP; (4) incubate at room temperature for 40 min; (5) add 10 μL of Kinase Detection; (6) reagent to convert ADP to ATP and introduce luciferase and luciferin to detect ATP; (7) incubate at room temperature for 30 min; (8) plate was measured on TriStar® LB942 Multimode Microplate Reader (BERTHOLD TECHNOLOGIES GmbH & Co. KG., Bad Wildbad, Germany) to detect the luminescence (Integration time 0.5–1 s). Curve fitting and data presentations were performed using GraphPad Prism version 5.0 (GraphPad Software, Inc.).

Data set [2] deals with H1975 cells. Kind of data set: Cell apoptosis, Annexin V-FITC/PI flow cytometry, H1975. Format: cell-based, human. To be noted: 48 h. How it is done: The H1975 and A431 cells (1 to 5 × 10^5 cells/well) incubated in 6-well plates were treated by different concentrations of inhibitors for 48 h. Then, they were collected and fixed with 70% ethanol at 4 °C overnight. After beening fixed with […], the cells were stained with Annexin V-FITC (5 μL)/propidium iodide (5 μL) and analyzed by flow cytometry assay (Becton-Dickinson, Franklin Lakes, NJ, USA).

A further data set concerns the target T2, EGFR L858R/T790M (Homo sapiens, UniProt P00533, L858R/T790M).
T2 construct: purchased Promega Corporation V5324
As to the kind of experiment: EGFR kinase enzymatic assay (ADP-Glo), L858R/T790M mutant. Format: biochemical. As to the method:
as §1, with “Concentrations consisting of suitable levels from 0.1 to 100 nM were used for all of the tested compunds. The experiments” for “The experiments”

The test system of data set [3] is A431 cells. Kind of data set: AO/EB and DAPI staining, A431. The conditions noted are these: A431, AO/EB or DAPI staining, 48 h. The format is cell-based, human. How it is done:
(§2) Approximately 2 × 10^5 cells/well of A431 and H1975 cells in 6-well plates were incubated in an incubator for 48 h, then treated with different concentrations of inhibitors for 48 h. After incubation, the cells were washed with PBS twice. Then, total of 20 μL of the solution containing the AO/EB dye mix (1.0 μg/mL of AO and 1.0 μg/mL of EB in PBS) was added to the cells. The apoptotic, necrotic, and live cells were observed and counted under the fluorescent microscope (OLYMPUS, Tokyo, Japan). DAPI staining was performed after being treated as mentioned above. The cells plated in 6-well plates were washed twice with PBS and fixed with 10% formaldehyde for 10 min, then washed with PBS three times. Cells were subsequently incubated in DAPI (1.0 μg/mL) solution at room temperature for 10 min, washed with PBS and examined under a fluorescence microscope (OLYMPUS).

The test system of data set [4] is H1975 cells. As to the kind of experiment: AO/EB and DAPI staining, H1975. Format: cell-based, human. The conditions noted are these: H1975, AO/EB or DAPI staining, 48 h. How it is done:
as §2

The next data set concerns H1299 cells. As to the kind of experiment: CCK-8 cell viability, H1299. The format is cell-based. The conditions noted are these: Homo sapiens, NCI-H1299, H1299 (wild-type), read-out: Cellular Antiproliferative Activity (IC50, μM) H1299. How it is done: (§3) All the cell viability assays were performed according to the CCK-8 method. The cells were seeded at a density of 5 to 8 × 10^4 cells/mL in 96-well plates in growth medium supplemented with 10% serum at 37 °C with 5% CO2 for one day. After 12 h of incubation, 100 μL of medium was removed, and 100 μL of sample solution with different concentrations of inhibitor was added and then the cells were incubated for 48 or 72 h. Subsequently, 10 μL of CCK-8 reagent (Biotool Company, Kirchberg, Switzerland, 5.0 mg/mL) dissolved in phosphate-buffered saline (PBS) was added and the cells were incubated for another 4 h. The absorbance was read at 450 nm with a microplate reader (Thermo Fisher Scientific, Waltham, MA, USA). The data were calculated using GraphPad Prim version 5.0.

Another data set has as its system LoVo cells. Kind of data set: CCK-8 cell viability, LoVo. The format is cell-based. The conditions noted are these: Homo sapiens, CCK-8, read-out: Cellular Antiproliferative Activity (IC50, μM) LoVo. How it is done:
as §3

In the next data set the test system is HBE cells. As to the kind of experiment: CCK-8 cell viability, HBE normal bronchial cells. The format is cell-based. To be noted: HBE normal human bronchial cell line, read-out: Cellular Antiproliferative Activity (IC50, μM) HBE. As to the method: as §3
Data set [5] can be described thus: In vivo blood sugar test (rat oral glucose tolerance). To be noted: healthy male SD rats, 50 mg/kg (HBr form), up to 12 h. As to the method: The Roche Accu-chek® Go blood meter was used for the determination of glucose concentration. Before testing, standard set-up of blood meter was performed according to the instrument’s specifications. […] Water was allowed ad libitum throughout the study. Rats were orally given compound DY3002 (50 mg/kg) and a vehicle. For the oral study, the compounds were formulated as a solution (Solutol HS15: NS = 30:70, v:v). Sampling occurred prior to dosing and at 7–9 different time points up to 12 h. Concentration of glucose in the blood was determined by blood meter.

“Also recorded” adds a separate entry of the source. Some results are limits rather than exact numbers.

Regarding `C=CC(=O)Nc1cccc(Nc2nc(Nc3ccc(CN4CCOCC4)cc3)ncc2Cl)c1` [DY3002, N-(3-((5-chloro-2-(4-((1-morpholino)methyl)phenylamino)-4-pyrimidinyl)amino)phenyl)acrylamide], the “Apoptosis rate (%)” value in the data set with A431 cells [1] (A431, 0.5 μM) is listed as 46.1%; in the data set on A431 cells [1] (A431, 1 μM) it was 50.8%; in the data set on A431 cells [1] (A431, 2 μM) it was 61.6%; with H1975 cells [2] (H1975, 100 nM), 25.7%; with H1975 cells [2] (H1975, 200 nM), 72.0%; with H1975 cells [2] (H1975, 400 nM) it was 90.1%. Besides, the IC50 on wild-type EGFR was 449 nM; at EGFR L858R/T790M (EGFR L858R/T790M, ADP-Glo kinase assay), 0.71 nM; in the data set with H1299 cells, 4.12 µM; in the data set with LoVo cells it was 2.46 µM; in the data set with HBE cells, over 40 µM. Also, at EGFR L858R/T790M (selectivity index, IC50 WT / IC50 L858R/T790M), the “SI(WT:L858R/T790M)” value is recorded as 632.0. Moreover, the apoptotic morphology entry in the data set with A431 cells [3] is “striking nuclear condensation, membrane blebbing, nuclear fragmentation, and apoptotic bodies”; in the data set on H1975 cells [4], “striking nuclear condensation, membrane blebbing, nuclear fragmentation, and apoptotic bodies”. Also, the “hyperglycemia (blood glucose concentration versus control group)” value in data set [5] was “did not result in hyperglycemia; also recorded: did not yield hyperglycemia; also recorded: no hyperglycemia side effects”.
